Molecules are shown by their SMILES.

This is an account of results in US8809342B2, “Glucagon receptor modulators” (Pfizer Inc., priority 2010, dated 2014).

This test has as its target T1, human glucagon receptor (Homo sapiens, UniProt P47871).
T1 construct: expressed in transfected cells; host or cells: CHO-K1 cells, stably transfected
Description: Glucagon cAMP assay (Cisbio cAMP detection). Further: 100 pM glucagon challenge. The class given is cell-based.

T1 sequence (P47871 26-477): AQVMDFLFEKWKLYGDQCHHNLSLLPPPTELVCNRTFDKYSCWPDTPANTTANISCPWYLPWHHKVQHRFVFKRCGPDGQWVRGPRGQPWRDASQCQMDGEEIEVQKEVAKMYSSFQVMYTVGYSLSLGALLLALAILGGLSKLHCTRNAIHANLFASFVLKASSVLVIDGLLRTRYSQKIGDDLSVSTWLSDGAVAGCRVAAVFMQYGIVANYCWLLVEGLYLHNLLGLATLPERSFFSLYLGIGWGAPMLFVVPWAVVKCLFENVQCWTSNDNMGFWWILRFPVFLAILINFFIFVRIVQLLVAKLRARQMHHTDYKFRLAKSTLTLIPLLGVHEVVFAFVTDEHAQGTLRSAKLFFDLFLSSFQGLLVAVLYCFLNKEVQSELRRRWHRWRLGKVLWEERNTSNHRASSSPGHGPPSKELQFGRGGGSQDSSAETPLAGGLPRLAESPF

In the case of `Cc1cc(NC(CC(C)C)c2ccc(C(=O)NCCC(=O)O)cn2)cc(C)c1-c1ccc(C(F)(F)F)cc1` (single isomer, unassigned; isomer 1) [Example 2.2, 3-(6-(1-(2,6-dimethyl-4′-(trifluoromethyl)biphenyl-4-ylamino)-3-methylbutyl)nicotinamido)propanoic acid, Isomer 1], the Kb was 54 nM. The result for `CC(C)CC(Nc1ccc(-c2ccc(C(F)(F)F)cc2)cc1)c1ccc(C(=O)NCCC(=O)O)cn1` (single isomer, unassigned; isomer 1) [Example 2.5, 3-(6-(3-methyl-1-(4′-(trifluoromethyl)biphenyl-4-ylamino)butyl)nicotinamido)propanoic acid, Isomer 1] reads 760 nM; that for `CCCC(Nc1cnc(-c2ccc(C(F)(F)F)cc2)nc1)c1ccc(C(=O)NCCC(=O)O)cc1` (single isomer, unassigned; isomer 1) [Example 2.16, 3-(4-(1-(2-(4-(trifluoromethyl)phenyl)pyrimidin-5-ylamino)butyl)benzamido)propanoic acid, Isomer 1], 120 nM; that for `Cc1cc(NC(CC(C)C)c2ccc(C(=O)NCCC(=O)O)cn2)cnc1-c1ccc(Cl)cc1` (single isomer, unassigned; isomer 1) [Example 4.16, 3-(6-(1-(6-(4-chlorophenyl)-5-methylpyridin-3-ylamino)-3-methylbutyl)nicotinamido)propanoic acid, Isomer 1], 180 nM.

As to `CC(C)C[C@@H](Nc1ccc(C(=O)NCCC(=O)O)cn1)c1ccc(-c2ccc(C(F)(F)F)cc2)nc1` (single isomer, unassigned; isomer 1) [Example 4.20, 3-(6-(3-methyl-1-(6-(4-(trifluoromethyl)phenyl)pyridin-3-yl)butylamino)nicotinamido)propanoic acid, Isomer 1], the Kb turned out to be 61 nM. The figure for `CC(C)CC(Nc1ncc(C(=O)NCCC(=O)O)cn1)c1ccc(-c2ccc(C(F)(F)F)cc2)cc1` (single isomer, unassigned; isomer 2) [Example 1.6, 3-(2-(3-methyl-1-(4′-(trifluoromethyl)biphenyl-4-yl)butylamino)pyrimidine-5-carboxamido)propanoic acid, Isomer 2] is 210 nM; for `CCCC(Nc1ccc(C(=O)NCCC(=O)O)cn1)c1ccc(-c2ccc(C(F)(F)F)cc2)cc1` (single isomer, unassigned; isomer 2) [Example 1.9, 3-(6-(1-(4′-(trifluoromethyl)biphenyl-4-yl)butylamino)nicotinamido) propanoic acid, Isomer 2] it is 130 nM.

On to `CCC(Nc1ccc(C(=O)NCCC(=O)O)cn1)c1ccc(-c2ccc(C(F)(F)F)cc2)cc1` (single isomer, unassigned; isomer 2) [Example 1.13, 3-(6-(1-(4′-(trifluoromethyl)biphenyl-4-yl)propylamino)nicotinamido) propanoic acid, Isomer 2], for which the Kb was 150 nM. For the compound `CC(C)CC(Nc1cnc(C(=O)NCCC(=O)O)cn1)c1ccc(-c2ccc(C(F)(F)F)cc2)cc1` (single isomer, unassigned; isomer 2) [Example 1.18, 3-(5-(3-methyl-1-(4′-(trifluoromethyl)biphenyl-4-yl)butylamino)pyrazine-2-carboxamido)propanoic acid, Isomer 2], the Kb is 120 nM.

`CC(C)CC(Nc1ccc(-c2ccc(C(F)(F)F)cc2)cc1)c1ccc(C(=O)NCCC(=O)O)cn1` (single isomer, unassigned; isomer 2) [Example 2.6, 3-(6-(3-methyl-1-(4′-(trifluoromethyl)biphenyl-4-ylamino)butyl)nicotinamido)propanoic acid, Isomer 2] yielded a Kb of 500 nM. The figure for `CCCC(Nc1cnc(-c2ccc(C(F)(F)F)cc2)nc1)c1ccc(C(=O)NCCC(=O)O)cc1` (single isomer, unassigned; isomer 2) [Example 2.17, 3-(4-(1-(2-(4-(trifluoromethyl)phenyl)pyrimidin-5-ylamino)butyl)benzamido)propanoic acid, Isomer 2] is 420 nM.
